Results published in PubChem BioAssay (NCI).
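Each compound was tested at five concentrations against cells in 96-well plates for 48 hours. TGI: total growth inhibition.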

How the values were obtained:
Experiment in all cases: NCI anticancer screen, dose series, 48 h
[1] = test system: MDA-MB-231 breast
[2] = test system: UACC-62 melanoma
[3] = test system: OVCAR-5 ovarian
[4] = test system: SW-620 colon
[5] = test system: ACHN renal
[6] = test system: TK-10 renal
[7] = test system: HL-60(TB) leukemia
[8] = test system: PC-3 prostate
[9] = test system: NCI-H522 lung
[10] = test system: T-47D breast
[11] = test system: HOP-92 NSCLC
[12] = test system: SF-539 CNS
[13] = test system: EKVX NSCLC
[14] = test system: SF-295 CNS
[15] = test system: SN12C renal
[16] = test system: OVCAR-8 ovarian
[17] = test system: A498 renal
[18] = test system: OVCAR-4 ovarian
[19] = test system: MALME-3M melanoma
[20] = test system: U251 CNS
[21] = test system: SK-MEL-5 melanoma
[22] = test system: CCRF-CEM leukemia
[23] = test system: HOP-62 NSCLC
[24] = test system: HCT-116 colon
[25] = test system: NCI-H23 lung
[26] = test system: COLO 205 colon
[27] = test system: KM12 colon
[28] = test system: HT29 colon
[29] = test system: LOX IMVI melanoma
[30] = test system: K-562 leukemia
[31] = test system: SNB-19 CNS
[32] = test system: NCI/ADR-RES ovarian
[33] = test system: MOLT-4 leukemia
[34] = test system: RPMI-8226 leukemia
[35] = test system: CAKI-1 renal
[36] = test system: MCF7 breast
[37] = test system: UACC-257 melanoma
[38] = test system: SNB-75 CNS
[39] = test system: NCI-H226 lung
[40] = test system: SK-OV-3 ovarian
[41] = test system: A549 NSCLC
[42] = test system: SK-MEL-28 melanoma
[43] = test system: MDA-MB-435
[44] = test system: 786-0 renal
[45] = test system: M14 melanoma
[46] = test system: OVCAR-3 ovarian
[47] = test system: HCT-15 colon
[48] = test system: SK-MEL-2 melanoma
[49] = test system: HCC-2998 colon
[50] = test system: MDA-N
[51] = test system: DU-145 prostate
[52] = test system: IGROV1 ovarian
[53] = test system: UO-31 renal
[54] = test system: HS 578T breast
[55] = test system: NCI-H460 lung
[56] = test system: SR leukemia
[57] = test system: SF-268 CNS
[58] = test system: RXF 393 renal

Measured: TGI

Cc1[nH]c(=O)nc2sc(=NC3CCCCC3)n(C3CCCCC3)c(=O)c12
not listed: [54] | [55] | [56] | [57] | [58]
> 100 µM: all other assays above

NC(Cc1ccccc1)C(=O)NC(Cc1ccccc1)NC(=O)C(Cc1c[nH]c2ccccc12)C(=O)O (centres undefined)
not listed: [30] | [33]
> 100 µM: all other assays above
